Results reported in US20220204539A1, “CD73 INHIBITORS” (BioArdis LLC, priority 2019, published 2022).

Experiments:
[1] = molecular target: T1, Recombinant Human 5′-Nucleotidase (CD73) (Homo sapiens, UniProt P21589); assay: CD73 Enzyme Assay; format: biochemical; conditions: human CD73 0.5 nM, AMP 30 μM, PiColorLock phosphate detection; read-out: Potency (IC50, CD73 enzyme assay)
T1 construct: CHO derived CD73 (Trp27-Lys547), with a C-terminal 6-His tag; 6-His (C); purchased R&D 5795-EN; host or cells: CHO
T1 sequence (P21589 27-547): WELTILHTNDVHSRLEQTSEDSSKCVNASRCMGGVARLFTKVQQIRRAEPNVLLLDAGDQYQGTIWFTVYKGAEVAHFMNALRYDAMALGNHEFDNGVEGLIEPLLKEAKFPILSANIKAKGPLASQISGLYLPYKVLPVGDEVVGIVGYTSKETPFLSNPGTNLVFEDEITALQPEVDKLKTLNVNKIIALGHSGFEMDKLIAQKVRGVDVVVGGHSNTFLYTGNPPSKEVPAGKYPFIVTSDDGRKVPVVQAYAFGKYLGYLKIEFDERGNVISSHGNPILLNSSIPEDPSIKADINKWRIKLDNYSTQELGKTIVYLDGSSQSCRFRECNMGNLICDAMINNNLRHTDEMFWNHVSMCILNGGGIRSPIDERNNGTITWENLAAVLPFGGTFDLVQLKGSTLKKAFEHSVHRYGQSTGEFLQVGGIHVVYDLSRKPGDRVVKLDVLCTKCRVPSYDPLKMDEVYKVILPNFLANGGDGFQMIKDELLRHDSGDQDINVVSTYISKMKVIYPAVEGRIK
How it was run: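 Human CD73 (CHO-derived Trp27-Lys547, His-tagged; 0.5 nM final) was preincubated with compound for 15 min at 25° C. in Tris pH 7.5 buffer with MgCl2. It then reacted with 30 μM AMP for 20 min at 37° C., and released phosphate was read by malachite green absorbance at 635 nm. IC50 came from four-parameter fits against enzyme and no-enzyme controls.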

[2] = molecular target: T2, Cell surface CD73 of U87 MG human glioblastoma cells (Homo sapiens, UniProt P21589); assay: CD73 Cellular Assay; format: cell-based; conditions: 5000 cells per well, 30 μM AMP substrate, read-out: Potency (IC50, CD73 cellular assay)
T2 construct: Cell surface CD73 catalyzes the conversion of adenosine monophosphate (AMP) to adenosine and inorganic phosphate; endogenous in cells; host or cells: U87 MG human glioblastoma cells
T2 sequence (P21589 27-549): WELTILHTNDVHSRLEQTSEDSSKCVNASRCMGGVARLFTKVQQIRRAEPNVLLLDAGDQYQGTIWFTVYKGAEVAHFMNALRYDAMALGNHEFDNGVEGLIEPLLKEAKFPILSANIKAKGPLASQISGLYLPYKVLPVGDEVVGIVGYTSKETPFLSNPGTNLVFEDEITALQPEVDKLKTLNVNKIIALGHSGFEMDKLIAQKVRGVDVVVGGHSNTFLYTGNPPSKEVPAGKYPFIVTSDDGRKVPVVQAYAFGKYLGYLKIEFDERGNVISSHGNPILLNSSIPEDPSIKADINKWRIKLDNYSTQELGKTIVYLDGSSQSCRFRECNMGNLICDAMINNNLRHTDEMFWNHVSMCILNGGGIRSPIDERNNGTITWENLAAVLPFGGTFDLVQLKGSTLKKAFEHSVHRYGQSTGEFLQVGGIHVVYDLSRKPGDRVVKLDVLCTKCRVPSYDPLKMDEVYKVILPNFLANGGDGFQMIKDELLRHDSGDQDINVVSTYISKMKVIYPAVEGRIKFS
How it was run: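 U87 MG cells (5000/well) preincubated with compound 30 min at 37 °C, 5% CO2, in HEPES-buffered saline pH 7.4 with 0.5% DMSO, then 30 μM AMP (final) for 50 min. Released phosphate in supernatant read colorimetrically at 635 nm; IC50 from four-parameter logistic fit versus cells-plus-substrate and cells-only controls.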

[3] = system: CT-26 murine colon carcinoma; assay: subcutaneous CT-26 murine colon carcinoma syngeneic model, combination therapy; format: in vivo; conditions: combination with anti-mPDI antibody 10 mg/kg i.p. twice weekly, 4 doses; compound 10 mg/kg iv once a day from day 6 post implant; CT-26 in BALB/c female mice
Procedure: Some compounds were evaluated preclinically for in vivo therapeutic efficacy as single agents or in combination with other agents. Compounds of the invention show potent anti-tumor effects when dosed in combination with, for example, an anti-mPDI antibody as evidenced by reducing tumor volume in a subcutaneous CT-26 murine colon carcinoma syngeneic model in BALB/c female mice. CT-26 tumor cells were implanted subcutaneously into BALB/c female mice for each experiment. Anti-mPDl antibody (10 mg/kg) was dosed i.p. starting on study day 6 post implant twice weekly for a total of 4 doses. Compound No. 65 (10 mg/kg) or vehicle was administered iv once a day starting on day 6 post implant.

IC50 [1]: < 10 nM | IC50 [2]: < 1 nM
SMILES: O=P(O)(O)CP(=O)(O)OC[C@H]1O[C@@H](c2cnc3c(N4CCCC4)nc(Cl)nn23)[C@H](O)[C@@H]1O [Compound 65, [({[(2R,3S,4R,5S)-5-[2-chloro-4-(pyrrolidin-1-yl)imidazo[2,1-f][1,2,4]triazin-7-yl]-3,4-dihydroxyoxolan-2-yl]methoxy}(hydroxy)phosphoryl)methyl]phosphonic Acid]
tumor volume [3]: reduction in tumor volume
